From the supplement of paper PMC10307832

How the values were obtained:
Test in all cases: relative viability (nuclei count vs DMSO), 5 days (fraction); higher = more cells survive
COR-L 105 = tested on: COR-L 105
Outline: (§1)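 Values are medians from duplicate plates. Each reflects relative viability, defined as the nuclei count of treated wells over that of vehicle wells. Lung cancer cell lines in 1536-well plates were pin-tool dosed one day after seeding with one drug alone or with a fixed anchor-drug dose plus five library-drug doses (not always all listed) in √10 steps, then fixed, stained and imaged at 4× after 5 days.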

NCI-H1395 = tested on: NCI-H1395
Outline: as §1

EMC-BAC-2 = tested on: EMC-BAC-2
Outline: as §1

H3255 = tested on: H3255
Outline: as §1

NCI-H2126 = tested on: NCI-H2126
Outline: as §1

NCI-H2087 = tested on: NCI-H2087
Outline: as §1

HOP-62 = tested on: HOP-62
Outline: as §1

LOU-NH91 = tested on: LOU-NH91
Outline: as §1

UMC-11 = tested on: UMC-11
Outline: as §1

201T = tested on: 201T
Outline: as §1

SK-MES-1 = tested on: SK-MES-1
Outline: as §1

SW 900 = tested on: SW 900
Outline: as §1

BEN = tested on: BEN
Outline: as §1

NCI-H2170 = tested on: NCI-H2170
Outline: as §1

HCC-78 = tested on: HCC-78
Outline: as §1

LXF-289 = tested on: LXF-289
Outline: as §1

HARA = tested on: HARA
Outline: as §1

RERF-LC-KJ = tested on: RERF-LC-KJ
Outline: as §1

LC-2-ad = tested on: LC-2-ad
Outline: as §1

NCI-H650 = tested on: NCI-H650
Outline: as §1

LU99A = tested on: LU99A
Outline: as §1

NCI-H1993 = tested on: NCI-H1993
Outline: as §1

Cc1cn(-c2cc(NC(=O)c3ccc(C)c(Nc4nccc(-c5cccnc5)n4)c3)cc(C(F)(F)F)c2)cn1 [Nilotinib] + Cc1cc(Nc2cc(N3CCN(C)CC3)nc(Sc3ccc(NC(=O)C4CC4)cc3)n2)n[nH]1 [Tozasertib] (partner 0.1 µM)
relative viability (COR-L 105; first compound 0.001 µM): 0.361
relative viability (COR-L 105; first compound 0.003162 µM): 0.329
relative viability (COR-L 105; first compound 0.01 µM): 0.497
relative viability (COR-L 105; first compound 0.03162 µM): 0.329
relative viability (COR-L 105; first compound 0.1 µM): 0.317
relative viability (NCI-H1395; first compound 0.001 µM): 0.691
relative viability (NCI-H1395; first compound 0.003162 µM): 0.674
relative viability (NCI-H1395; first compound 0.01 µM): 0.751
relative viability (NCI-H1395; first compound 0.03162 µM): 0.612
relative viability (NCI-H1395; first compound 0.1 µM): 0.736
relative viability (EMC-BAC-2; first compound 0.001 µM): 0.259
relative viability (EMC-BAC-2; first compound 0.003162 µM): 0.258
relative viability (EMC-BAC-2; first compound 0.01 µM): 0.244
relative viability (EMC-BAC-2; first compound 0.03162 µM): 0.269
relative viability (H3255; first compound 0.001 µM): 0.532
relative viability (H3255; first compound 0.003162 µM): 0.516
relative viability (H3255; first compound 0.03162 µM): 0.48
relative viability (H3255; first compound 0.1 µM): 0.717
relative viability (NCI-H2126; first compound 0.001 µM): 0.786
relative viability (NCI-H2126; first compound 0.003162 µM): 0.857
relative viability (NCI-H2126; first compound 0.01 µM): 0.963
relative viability (NCI-H2126; first compound 0.03162 µM): 0.599
relative viability (NCI-H2126; first compound 0.1 µM): 0.438
relative viability (NCI-H2087; first compound 0.001 µM): 0.195
relative viability (NCI-H2087; first compound 0.003162 µM): 0.24
relative viability (NCI-H2087; first compound 0.01 µM): 0.202
relative viability (NCI-H2087; first compound 0.03162 µM): 0.19
relative viability (NCI-H2087; first compound 0.1 µM): 0.197
relative viability (HOP-62; first compound 0.001 µM): 0.288
relative viability (HOP-62; first compound 0.01 µM): 0.289
relative viability (LOU-NH91; first compound 0.001 µM): 0.696
relative viability (LOU-NH91; first compound 0.003162 µM): 0.708
relative viability (LOU-NH91; first compound 0.01 µM): 0.781
relative viability (LOU-NH91; first compound 0.03162 µM): 0.62
relative viability (LOU-NH91; first compound 0.1 µM): 0.726
relative viability (UMC-11; first compound 0.001 µM): 0.191
relative viability (UMC-11; first compound 0.003162 µM): 0.19
relative viability (UMC-11; first compound 0.01 µM): 0.179
relative viability (UMC-11; first compound 0.03162 µM): 0.166
relative viability (UMC-11; first compound 0.1 µM): 0.134
relative viability (201T; first compound 0.003162 µM): 1.18
relative viability (201T; first compound 0.01 µM): 0.976
relative viability (201T; first compound 0.03162 µM): 0.691
relative viability (201T; first compound 0.1 µM): 0.634
relative viability (SK-MES-1; first compound 0.001 µM): 0.804
relative viability (SK-MES-1; first compound 0.003162 µM): 0.939
relative viability (SK-MES-1; first compound 0.01 µM): 1.05
relative viability (SK-MES-1; first compound 0.03162 µM): 0.572
relative viability (SK-MES-1; first compound 0.1 µM): 0.524
relative viability (SW 900; first compound 0.001 µM): 0.324
relative viability (SW 900; first compound 0.003162 µM): 0.51
relative viability (SW 900; first compound 0.01 µM): 0.389
relative viability (SW 900; first compound 0.03162 µM): 0.34
relative viability (SW 900; first compound 0.1 µM): 0.262
relative viability (BEN; first compound 0.001 µM): 0.498
relative viability (BEN; first compound 0.003162 µM): 0.494
relative viability (BEN; first compound 0.01 µM): 0.456
relative viability (BEN; first compound 0.03162 µM): 0.408
relative viability (BEN; first compound 0.1 µM): 0.509
relative viability (NCI-H2170; first compound 0.001 µM): 0.734
relative viability (NCI-H2170; first compound 0.003162 µM): 0.77
relative viability (NCI-H2170; first compound 0.01 µM): 0.795
relative viability (NCI-H2170; first compound 0.03162 µM): 0.599
relative viability (NCI-H2170; first compound 0.1 µM): 0.55
relative viability (HCC-78; first compound 0.001 µM): 0.408
relative viability (HCC-78; first compound 0.003162 µM): 0.373
relative viability (HCC-78; first compound 0.01 µM): 0.479
relative viability (HCC-78; first compound 0.03162 µM): 0.331
relative viability (HCC-78; first compound 0.1 µM): 0.28
relative viability (LXF-289; first compound 0.001 µM): 0.254
relative viability (LXF-289; first compound 0.003162 µM): 0.189
relative viability (LXF-289; first compound 0.01 µM): 0.222
relative viability (LXF-289; first compound 0.03162 µM): 0.127
relative viability (LXF-289; first compound 0.1 µM): 0.153
relative viability (HARA; first compound 0.001 µM): 0.0752
relative viability (HARA; first compound 0.003162 µM): 0.102
relative viability (HARA; first compound 0.01 µM): 0.102
relative viability (HARA; first compound 0.03162 µM): 0.0999
relative viability (HARA; first compound 0.1 µM): 0.0992
relative viability (RERF-LC-KJ; first compound 0.001 µM): 0.335
relative viability (RERF-LC-KJ; first compound 0.003162 µM): 0.416
relative viability (RERF-LC-KJ; first compound 0.01 µM): 0.305
relative viability (RERF-LC-KJ; first compound 0.03162 µM): 0.349
relative viability (RERF-LC-KJ; first compound 0.1 µM): 0.302
relative viability (LC-2-ad; first compound 0.001 µM): 0.371
relative viability (LC-2-ad; first compound 0.003162 µM): 0.337
relative viability (LC-2-ad; first compound 0.01 µM): 0.382
relative viability (LC-2-ad; first compound 0.03162 µM): 0.384
relative viability (LC-2-ad; first compound 0.1 µM): 0.403
relative viability (NCI-H650; first compound 0.001 µM): 0.665
relative viability (NCI-H650; first compound 0.003162 µM): 0.67
relative viability (NCI-H650; first compound 0.01 µM): 0.725
relative viability (NCI-H650; first compound 0.03162 µM): 0.672
relative viability (NCI-H650; first compound 0.1 µM): 0.68
relative viability (LU99A; first compound 0.001 µM): 0.232
relative viability (LU99A; first compound 0.003162 µM): 0.268
relative viability (LU99A; first compound 0.01 µM): 0.211
relative viability (LU99A; first compound 0.03162 µM): 0.256
relative viability (LU99A; first compound 0.1 µM): 0.226
relative viability (NCI-H1993; first compound 0.001 µM): 0.611
relative viability (NCI-H1993; first compound 0.003162 µM): 0.668
relative viability (NCI-H1993; first compound 0.01 µM): 0.622
relative viability (NCI-H1993; first compound 0.03162 µM): 0.586
relative viability (NCI-H1993; first compound 0.1 µM): 0.631
